In patent publication US8642067B2, “Methods and compositions for intraocular administration to treat ocular conditions” (Allergen, Inc., priority 2007, dated 2014):

Tests used:
in vivo = settings: female, albino, rabbit
Method: Vitreous humor samples (n=4 eyes per timepoint) were collected at 0.5, 1, 2, 4, 8, and 12 hr postdose. The TKI concentration in the vitreous humor was determined using a liquid chromatography tandem mass spectrometry method (LC-MS/MS).

macula edema patient = assay: Treatment of macular edema with intravitreal TKI composition (ETDRS visual acuity chart); type: in vivo, human; settings: twelve months after first injection; 1 mg intravitreal every 4 months; high viscosity hyaluronate solution such as Example 13 formulation
Method: An obese patient with symptoms of diabetes presents with vision loss due to macula edema with central retinal vein occlusion and/or branch retinal vein occlusion. They receive intravitreal injection of 1 mg of a high viscosity TKI (polymeric hyaluronate based) solution containing COMPOUND F, such as the Example 13 formulation. Equivalent injections are made every 4 months.

Row | AUC(0-t) (in vivo) | C0 (in vivo) | Vd (in vivo) | clearance (in vivo) | half-life (in vivo) | Compound | improved best corrected visual acuity from baseline (ETDRS chart) (macula edema patient)
1 | 778 ng·h/mL | 566 ng/mL | 0.000705 L | 0.00433 mL/min | 2.59 h | Nc1ccc2c(c1)/C(=C1\C(=O)Nc3ccc(Cl)cc31)OC2 [COMPOUND A, 3-(6-Amino-3H-isobenzofuran-1-ylidene)-5-chloro-1,3-dihydro-indol-2-one] | –
2 | – | – | – | – | – | Cc1cc(C(=O)Nc2cccc(C#Cc3cncc(C(=O)N=S(C)(=O)c4ccc(CCC(=O)O)cc4)c3)c2)n(C)n1 (stereo not drawn) [COMPOUND F] | fifteen
